Read-outs that look alike come from different tables or passages of the source.
Tests used:
[1] = system: Yap1; experiment: Nuclear Yap1 immunofluorescence in KP230 cells; assay type: cell-based, mouse
Description: (§1) YAP1 cell culture and treatments: Eisinger lab: Murine KP230 cells, a Yap1-dependent cancer cell line, were derived from a tumor from the KP mouse model (Kras^G12/D; Trp53^f/fl), as described in Eisinger-Mathason, T. S. K. et al., Proc. Natl. Acad. Sci. U.S.A 112 (2015): E3402-11, which is hereby incorporated by reference in its entirety. STS-109 UPS cells were derived from a human UPS tumor and validated by Rebecca Gladdy, MD (Sinai Health System, Toronto, Ontario, Canada). TC32 cells were a gift from Patrick Grohar, MD, PhD (Children's Hospital of Philadelphia). HT-1080, HCT-116, and HEK293T cells were purchased from ATCC. KP230, HT-1080, and HEK-293T cells were grown in DMEM with 10% FBS, 1% L-glutamine, and 1% penicillin/streptomycin (P/S). […]
YAP1-related immunofluorescence and image analysis: Cells were grown on poly-L-lysine-coated chamber slides were fixed in 4% PFA (15 minutes at room temperature), permeabilized with 0.5% Triton-X100/PBS (15 minutes at room temperature), and blocked with 5% goat serum (Vector Laboratories S-1000; 1 hour at room temperature). […] The ratio of nuclear to total Yap1 expression was determined after subtracting out background GFP signal from no-primary antibody controls.

[2] = system: TRAF2 overexpression in U2OS cells; experiment: Cell Painting morphological profile matching to TRAF2 overexpression; assay type: cell-based, human; details: Pearson correlation of Cell Painting signatures, U2OS cells
In short: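 Compound-treated U2OS cells were stained with six fluorescent labels and imaged, and morphological profiles were standardized plate-wise against controls. Replicate profiles were averaged into signatures. Compound and gene-overexpression signatures were matched by Pearson correlation.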

[3] = system: HT-1080 fibrosarcoma cells; experiment: Proliferation assay, HT-1080 cells; assay type: cell-based, human; details: 10 μM daily for 72 hours
Description: as §1, with “(P/S). STS-109 cells were cultured in DMEM with 20% FBS, 1% L-glutamine, and 1% P/S. TC32 cells were grown in RPMI with 10% FBS, 1% L-glutamine, and 1% P/S. HCT-116 cells were cultured in McCoy's 5A medium with 10% FBS and 1% P/S. All cells were confirmed to be negative for mycoplasma contamination and were maintained in an incubator at 37C with 5% CO2.” for “(P/S).”
NB4A treatment: Cells were treated with 10 μM of each inhibitor or an equivalent volume of DMSO every 24 hours for 3-8 days, and counted with a hemocytometer with trypan blue exclusion daily (KP230, HT-1080, TC32, HCT-116), or every 2 days (STS-109).

[4] = system: YAP1 mRNA; details: cited from earlier work
[5] = system: KP230 cells; experiment: RNA sequencing and gene set enrichment analysis in KP230 cells; assay type: cell-based, mouse; details: 10 μM daily for 72 hours
Description: as §1, with “(P/S). STS-109 cells were cultured in DMEM with 20% FBS, 1% L-glutamine, and 1% P/S. TC32 cells were grown in RPMI with 10% FBS, 1% L-glutamine, and 1% P/S. HCT-116 cells were cultured in McCoy's 5A medium with 10% FBS and 1% P/S. All cells were confirmed to be negative for mycoplasma contamination and were maintained in an incubator at 37C with 5% CO2. For experimental purposes, cells were cultured for up to 20 passages before being discarded, and were grown to approximately 50% confluence to circumvent the effects of high cell density on Yap1 expression and activity.” for “(P/S).”

## c1ccc(CNc2ncnc3ccccc23)cc1 [BRD-K43796186, N-benzylquinazolin-4-amine]
[1]
  Yap1 nuclear localization: significantly attenuated
[2]
  Corr. to TRAF2: −0.3778
[3]
  proliferation: did not affect the proliferation
[4]; A375 cells, 6 and 24 hours
  YAP1 mRNA z-score: ~-0.7
[4]; HT29 cells, six hours
  YAP1 mRNA z-score: 3.16
[4]; most cell types in the Connectivity Map
  YAP1 mRNA: unaffected
[5]
  pathways down-regulated (GSEA): epithelial-mesenchymal transition, angiogenesis, and glycolysis
  pathways up-regulated (GSEA): interferon alpha and gamma responses

— US20230255970A1, “COMPOSITIONS AND METHODS FOR TREATING PROLIFERATIVE DISEASES” (The Broad Institute, Inc., priority 2020, published 2023)
